Measured values as given in patent US12240860B2, “Heterobicyclic carboxylic acids and salts thereof” (SHENZHEN IONOVA LIFE SCIENCE CO., LTD., priority 2018, dated 2025).

Experiment: DVS (Dynamic Vapor Sorption) moisture sorption/desorption
Format: physicochemical
Settings: 25° C.
Experimental: DVS (Dynamic Vapor Sorption)
Around 20 mg of samples were used to test its moisture sorption/desorption profiles at 25° C. under 0%˜95%˜0% relative humidity (RH) cycle with the following parameters:
Equilibrium: dm/dt: 0.01%/min.
RH (%) measurement step scope: 0%95%0%; RH (%) measurement step: 5%

Question: What does the source list for Cc1sc2ccn(Cc3ccc(C(F)(F)F)cc3)c2c1C(=O)NC1(c2ccc(C(=O)O)cc2)CC1 [C003 free acid, 4-(1-{[2-Methyl-4-(4-trifluoromethyl-benzyl)-4H-thieno[3,2-b]pyrrole-3-carbonyl]-amino}-cyclopropyl)-benzoic acid]?
Answer: moisture at 80% RH (DVS): 3.175%; Hygroscopicity Classification (DVS) (80% RH): hygroscopic
